Experiments:
Type in all cases: in vivo
Spodoptera littoralis = Spodoptera littoralis (Egyptian cotton leafworm) cotton leaf disc spray test; details: foliar, 72 h, 200 ppm spray on cotton leaf discs, 5 L1 larvae, mortality, feeding behavior, growth regulation 3 days after treatment
Source text: Spodoptera littoralis (Egyptian Cotton Leafworm) Cotton leaf discs were placed on agar in a 24-well microtiter plate and sprayed with test solutions at an application rate of 200 ppm. After drying, the leaf discs were infested with 5 L1 larvae. The samples were checked for mortality, feeding behavior, and growth regulation 3 days after treatment (DAT).

Diabrotica balteata = Diabrotica balteata (corn root worm) artificial diet MTP test; details: 120 h, 200 ppm (concentration in well 18 ppm), L2 larvae, larval mortality and growth regulation after 5 days
Protocol: (§1) Diabrotica balteata (Corn Root Worm): A 24-well microtiter plate (MTP) with artificial diet was treated with test solutions at an application rate of 200 ppm (concentration in well 18 ppm) by pipetting. After drying, the MTPs were infested with L2 larvae (6-10 per well). After an incubation period of 5 days, samples were checked for larval mortality and growth regulation.

Plutella xylostella = Plutella xylostella (diamond back moth) artificial diet MTP test; details: 144 h, 200 ppm (concentration in well 18 ppm), L2 larvae, larval mortality and growth regulation after 6 days
Protocol: as §1, with “Plutella xylostella (Diamond Back Moth):” for “Diabrotica balteata (Corn Root Worm): A”, “(7-12” for “(6-10”, “6” for “5”

Tetranychus urticae = Tetranychus urticae (two-spotted spider mite) bean leaf disc spray test; details: foliar, 192 h, 200 ppm spray on bean leaf discs, mite populations of mixed ages, egg, larval and adult mortality 8 days later
Source text: Tetranychus urticae (Two-Spotted Spider Mite): Bean leaf discs on agar in 24-well microtiter plates were sprayed with test solutions at an application rate of 200 ppm. After drying, the leaf discs are infested with mite populations of mixed ages. 8 days later, discs are checked for egg mortality, larval mortality, and adult mortality.

Heliothis virescens = Heliothis virescens (tobacco budworm) egg test on artificial diet; details: 96 h, 200 ppm (concentration in well 18 ppm), eggs 0-24 h old on artificial diet, egg mortality, larval mortality, growth regulation after 4 days
Protocol: Heliothis virescens (Tobacco Budworm):
Eggs (0-24 h old) were placed in 24-well microtiter plate on artificial diet and treated with test solutions at an application rate of 200 ppm (concentration in well 18 ppm) by pipetting. After an incubation period of 4 days, samples were checked for egg mortality, larval mortality, and growth regulation. The following compound gave at least 80% control of Heliothis virescens: A1, A2, A03, A05, A06, A07, A08, A09, A10, A11, A12, A13, A14, A15, A16, A17, A18, A19, A20, A21, A22, A25, A26, A27, A31, A32, A34, A37, A39, A40, A42, A44, A45, A46, A47, A48, A49, A50, A51, A52, A53, B1**.

Measured: pest or weed control at 200 ppm

CC(C)C(=O)NCc1ccc(C2=COC(c3cc(Cl)cc(Cl)c3)(C(F)(F)F)C2)cc1Cl (stereo not drawn) [Compound A46, N-[[2-chloro-4-[2-(3,5-dichlorophenyl)-2-(trifluoromethyl)-3H-furan-4-yl]phenyl]methyl]-2-methyl-propanamide]
≥ 80%: all assays above

O=C(CC(F)(F)F)NCc1ccc(C2=COC(c3cc(Cl)cc(Cl)c3)(C(F)(F)F)C2)cc1Cl (stereo not drawn) [Compound A48, N-[[2-chloro-4-[2-(3,5-dichlorophenyl)-2-(trifluoromethyl)-3H-furan-4-yl]phenyl]methyl]-3,3,3-trifluoro-propanamide]
≥ 80%: all assays above

Cc1cc2ncc(C(=O)NCc3ccc(C4=COC(c5cc(Cl)cc(Cl)c5)(C(F)(F)F)C4)cc3Cl)c(C)n2n1 (stereo not drawn) [Compound A40, N-[[2-chloro-4-[2-(3,5-dichlorophenyl)-2-(trifluoromethyl)-3H-furan-4-yl]phenyl]methyl]-2,7-dimethyl-pyrazolo[1,5-a]pyrimidine-6-carboxamide]
≥ 80%: Plutella xylostella | Tetranychus urticae | Heliothis virescens

O=C(NCc1ccc(C2=COC(c3cc(Cl)cc(Cl)c3)(C(F)(F)F)C2)cc1Cl)c1cccc(F)c1F (stereo not drawn) [Compound A20, N-[[2-chloro-4-[2-(3,5-dichlorophenyl)-2-(trifluoromethyl)-3H-furan-4-yl]phenyl]methyl]-2,3-difluoro-benzamide]
not listed: Tetranychus urticae
≥ 80%: all other assays above

O=C(NCc1ccc(C2=COC(c3cc(Cl)cc(Cl)c3)(C(F)(F)F)C2)cc1Cl)C1CCCO1 (stereo not drawn) [Compound A07, N-[[2-chloro-4-[2-(3,5-dichlorophenyl)-2-(trifluoromethyl)-3H-furan-4-yl]phenyl]methyl]tetrahydrofuran-2-carboxamide]
≥ 80%: all assays above

O=C(COc1ccccc1)NCc1ccc(C2=COC(c3cc(Cl)cc(Cl)c3)(C(F)(F)F)C2)cc1Cl (stereo not drawn) [Compound A19, N-[[2-chloro-4-[2-(3,5-dichlorophenyl)-2-(trifluoromethyl)-3H-furan-4-yl]phenyl]methyl]-2-phenoxy-acetamide]
not listed: Spodoptera littoralis
≥ 80%: all other assays above

CCC(=O)NCc1ccc(C2=COC(c3cc(Cl)cc(Cl)c3)(C(F)(F)F)C2)cc1Cl (stereo not drawn) [Compound A05, N-[[2-chloro-4-[2-(3,5-dichlorophenyl)-2-(trifluoromethyl)-3H-furan-4-yl]phenyl]methyl]propanamide]
≥ 80%: all assays above

CCC(CC)C(=O)NCc1ccc(C2=COC(c3cc(Cl)cc(Cl)c3)(C(F)(F)F)C2)cc1Cl (stereo not drawn) [Compound A03, N-[[2-chloro-4-[2-(3,5-dichlorophenyl)-2-(trifluoromethyl)-3H-furan-4-yl]phenyl]methyl]-2-ethyl-butanamide]
≥ 80%: all assays above

CCC(Cl)C(=O)NCc1ccc(C2=COC(c3cc(Cl)cc(Cl)c3)(C(F)(F)F)C2)cc1Cl (stereo not drawn) [Compound A47, 2-chloro-N-[[2-chloro-4-[2-(3,5-dichlorophenyl)-2-(trifluoromethyl)-3H-furan-4-yl]phenyl]methyl]butanamide]
not listed: Tetranychus urticae
≥ 80%: all other assays above

CC1CCCCC1C(=O)NCc1ccc(C2=COC(c3cc(Cl)cc(Cl)c3)(C(F)(F)F)C2)cc1Cl (stereo not drawn) [Compound A11, N-[[2-chloro-4-[2-(3,5-dichlorophenyl)-2-(trifluoromethyl)-3H-furan-4-yl]phenyl]methyl]-2-methyl-cyclohexanecarboxamide]
≥ 80%: Plutella xylostella | Tetranychus urticae | Heliothis virescens

Cn1nc(C(=O)NCc2ccc(C3=COC(c4cc(Cl)cc(Cl)c4)(C(F)(F)F)C3)cc2Cl)sc1=O (stereo not drawn) [Compound A50, N-[[2-chloro-4-[2-(3,5-dichlorophenyl)-2-(trifluoromethyl)-3H-furan-4-yl]phenyl]methyl]-4-methyl-5-oxo-1,3,4-thiadiazole-2-carboxamide]
not listed: Tetranychus urticae
≥ 80%: all other assays above

CS(=O)(=O)CC(=O)NCc1ccc(C2=COC(c3cc(Cl)cc(Cl)c3)(C(F)(F)F)C2)cc1Cl (stereo not drawn) [Compound A51, N-[[2-chloro-4-[2-(3,5-dichlorophenyl)-2-(trifluoromethyl)-3H-furan-4-yl]phenyl]methyl]-2-methylsulfonyl-acetamide]
≥ 80%: all assays above

O=C(Cc1ccccc1)NCc1ccc(C2=COC(c3cc(Cl)cc(Cl)c3)(C(F)(F)F)C2)cc1Cl (stereo not drawn) [Compound A14, N-[[2-chloro-4-[2-(3,5-dichlorophenyl)-2-(trifluoromethyl)-3H-furan-4-yl]phenyl]methyl]-2-phenyl-acetamide]
not listed: Diabrotica balteata
≥ 80%: all other assays above

O=C(NCc1ccc(C2=COC(c3cc(Cl)cc(Cl)c3)(C(F)(F)F)C2)cc1Cl)c1cccs1 (stereo not drawn) [Compound A44, N-[[2-chloro-4-[2-(3,5-dichlorophenyl)-2-(trifluoromethyl)-3H-furan-4-yl]phenyl]methyl]thiophene-2-carboxamide]
not listed: Tetranychus urticae
≥ 80%: all other assays above

O=C(COCc1ccccc1)NCc1ccc(C2=COC(c3cc(Cl)cc(Cl)c3)(C(F)(F)F)C2)cc1Cl (stereo not drawn) [Compound A08, 2-benzyloxy-N-[[2-chloro-4-[2-(3,5-dichlorophenyl)-2-(trifluoromethyl)-3H-furan-4-yl]phenyl]methyl]acetamide]
≥ 80%: Spodoptera littoralis | Tetranychus urticae | Heliothis virescens

O=C(Cc1cccs1)NCc1ccc(C2=COC(c3cc(Cl)cc(Cl)c3)(C(F)(F)F)C2)cc1Cl (stereo not drawn) [Compound A18, N-[[2-chloro-4-[2-(3,5-dichlorophenyl)-2-(trifluoromethyl)-3H-furan-4-yl]phenyl]methyl]-2-(2-thienyl)acetamide]
not listed: Diabrotica balteata
≥ 80%: all other assays above

COc1ccc(C(=O)NCc2ccc(C3=COC(c4cc(Cl)cc(Cl)c4)(C(F)(F)F)C3)cc2Cl)cc1 (stereo not drawn) [Compound A26, N-[[2-chloro-4-[2-(3,5-dichlorophenyl)-2-(trifluoromethyl)-3H-furan-4-yl]phenyl]methyl]-4-methoxy-benzamide]
not listed: Tetranychus urticae
≥ 80%: all other assays above

Cc1cccnc1C(=O)NCc1ccc(C2=COC(c3cc(Cl)cc(Cl)c3)(C(F)(F)F)C2)cc1Cl (stereo not drawn) [Compound A39, N-[[2-chloro-4-[2-(3,5-dichlorophenyl)-2-(trifluoromethyl)-3H-furan-4-yl]phenyl]methyl]-3-methyl-pyridine-2-carboxamide]
not listed: Tetranychus urticae
≥ 80%: all other assays above
